The text below walks through data of US20170296505A1, “LONG-CHAIN CARBOXYCHROMANOLS AND ANALOGS FOR USE AS ANTI-INFLAMMATORY AGENTS” (Purdue Research Foundation, priority 2008, published 2017).

The test system of data set [1] is sulfation of carboxychromanols. Kind of data set: Sulfation of carboxychromanols. The settings on record: preliminary data.
For data set [2], the system named is colon HCT116 cancer cells. Kind of data set: HCT116 cell growth / viability (MTT). It is filed as cell-based, human. On the procedure:
FIG. 9. MTT assay data were obtained after HCT116 colon cancer cells were incubated with curcumin (Cur, 6 μM), δTE-13′-COOH (13′, 10 μM) or their combination for 72 h. *P<0.05 and ***P<0.01 indicate statistically difference between the treatments and vehicle control.
(§1) The relative cell viability as a percentage of the control was determined for control and for each concentration.
This observation supports the idea that the combination of curcumin with 13′-COOHs may offer better anticancer efficacy than either agent alone.

Data set [3] concerns IL-1beta-stimulated PGE2 formation in A549 cells. Kind of data set: IL-1beta-stimulated PGE2 formation with or without sesamin (Table 4). The class given is cell-based, human. The conditions noted are these: IL-1beta 2 ng/ml, 8 h; 13′-COOH 2.5 uM, sesamin 1 uM. On the procedure:
Briefly, A549 cells were stimulated with IL-1beta (2 ng/ml) in the presence of DMSO (ctrl, 0.1%), control with sesamin (1 uM), 13′-COOH (structure 1) at 2.5 uM, 13′-COOH with sesamin (1 uM). Basal control was cells incubated with medium without IL-1beta. Eight hours later, media were collected and PGE2 was measured by ELISA.

The target in data set [4] is T1, COX-2 (Homo sapiens, UniProt P35354).
T1 sequence (P35354 18-604): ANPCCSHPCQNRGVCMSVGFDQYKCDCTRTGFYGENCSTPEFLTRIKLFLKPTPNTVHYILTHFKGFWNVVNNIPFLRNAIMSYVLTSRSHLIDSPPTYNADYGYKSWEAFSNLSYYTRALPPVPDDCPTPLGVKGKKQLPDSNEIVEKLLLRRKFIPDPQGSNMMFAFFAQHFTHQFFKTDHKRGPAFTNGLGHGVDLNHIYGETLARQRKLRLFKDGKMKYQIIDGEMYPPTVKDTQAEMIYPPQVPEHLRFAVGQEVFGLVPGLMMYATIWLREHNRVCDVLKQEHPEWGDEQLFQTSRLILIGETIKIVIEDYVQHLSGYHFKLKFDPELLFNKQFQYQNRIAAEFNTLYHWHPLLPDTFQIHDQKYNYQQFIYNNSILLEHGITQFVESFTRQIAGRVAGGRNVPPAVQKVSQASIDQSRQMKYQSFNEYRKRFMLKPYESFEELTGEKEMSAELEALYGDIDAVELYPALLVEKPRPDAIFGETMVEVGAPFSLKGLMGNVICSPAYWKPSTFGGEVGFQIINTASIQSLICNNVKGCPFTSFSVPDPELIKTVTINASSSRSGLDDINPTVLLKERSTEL
Kind of data set: COX-2 activity in intact cells. The class given is cell-based. Also on record: A549 cells were pre-treated with 0.5-1 ng/mL of IL-1β- for 6 hours to induce COX-2 expression; endogenous in cells. How it is done:
COX-2 activity in intact cells—A549 cells were pre-treated with 0.5-1 ng/mL of IL-1β- for 6 hours to induce COX-2 expression, then incubated with fresh medium containing vitamin E farms, metabolite-containing conditioned medium or control medium for 30 min. […] The enzyme reaction was initiated by addition of 5 μM AA for 5 min, and medium was collected and immediately frozen to −20 C. PGE2 generated was measured as an index of COX-2 activity using an EIA assay from Cayman Chemicals.

Another data set has as its target T2, ovine COX-1 (Ovis aries, UniProt P05979).
T2 construct: purchased Cayman Chemicals (Ann Arbor, Mich.)
T2 sequence (P05979 25-600): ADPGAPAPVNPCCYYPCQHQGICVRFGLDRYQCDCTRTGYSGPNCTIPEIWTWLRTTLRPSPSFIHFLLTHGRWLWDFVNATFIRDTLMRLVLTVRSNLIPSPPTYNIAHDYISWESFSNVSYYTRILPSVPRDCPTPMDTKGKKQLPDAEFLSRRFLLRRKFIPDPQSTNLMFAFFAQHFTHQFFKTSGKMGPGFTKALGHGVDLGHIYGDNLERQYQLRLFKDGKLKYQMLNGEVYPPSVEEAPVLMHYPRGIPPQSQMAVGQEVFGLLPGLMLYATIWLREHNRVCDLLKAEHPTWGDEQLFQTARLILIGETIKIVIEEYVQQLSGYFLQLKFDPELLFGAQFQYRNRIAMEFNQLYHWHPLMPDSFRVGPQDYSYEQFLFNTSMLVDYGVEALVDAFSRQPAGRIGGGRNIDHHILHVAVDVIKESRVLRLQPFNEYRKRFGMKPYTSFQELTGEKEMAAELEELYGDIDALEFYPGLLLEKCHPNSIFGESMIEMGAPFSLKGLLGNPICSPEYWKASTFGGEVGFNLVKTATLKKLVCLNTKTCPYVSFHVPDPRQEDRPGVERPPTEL
Kind of data set: COX-1 activity assay using purified enzyme. The class given is biochemical. How it is done:
(§2) COX-1 and COX -2 activity assay using purified enzymes—The enzymatic reactions were performed in 0.1M Tris (pH 8.0), in the presence of 5 mM EDTA, 2 mM phenol, and 1 μM heme. […] Enzymatic reactions were initiated by addition of AA at a final concentration of 5 μM for 2 min. The reaction was stopped by addition of 0.1 M HCl. Stannous chloride in 0.1 M HCl was then added to reduce PGG2 and PGH2 to PGF2a. After addition of 0.5 vol of […] NaCl, prostaglandins formed in the reaction were extracted using 2.5 vol of ethyl acetate and the organic layer was completely dried under N2. PGF2a, and PGE2 were quantified using ELISA assays from Cayman Chemicals.

The target in data set [5] is T1, COX-2. Kind of data set: COX-2 activity assay using purified enzyme. Also on record: purchased Cayman Chemicals (Ann Arbor, Mich.). It is filed as biochemical. On the procedure:
as §2

For data set [6] the following is noted: after γ-T supplementation; cited from earlier work.
Data set [7] is described as follows: Metabolite levels after γ-T supplementation in rats. The class given is in vivo. The settings on record: preliminary data. The source says: One important implication of our current findings is that different bioactivity among vitamin E forms may be rooted in their distinct metabolism. To this end, long-chain carboxychromanols may contribute to in vivo anti-inflammatory effect of γ-T (3-2). […] Himmelfard et al. reported that γ-T enriched but not a-T-enriched mixed tocopherol inhibited C-reactive protein and IL-6 in kidney-dialysis patients 36).

Data set [8] has as its system human normal CCD841CoN (CCD) colon epithelial cells. Kind of data set: Normal colon epithelial cell viability (MTT). The class given is cell-based. The settings on record: vs. cancer cells.
In the next data set the test system is HT29 colon cancer cells. Kind of data set: HT-29 cell viability (MTT). The class given is cell-based, human. On the procedure: FIG. 8. […] Relative cell viability was measured by MTT assay after cells were treated with STE-13′ at indicated concentrations and times compared with DMSO controls. […] The data are mean±SD from at least three independent experiments. *p <0.05 and **p<0.01 indicate a significant difference between treated and DMSO-control cells
Besides HT29 colon cancer cells, we also observed similar anticancer effects of δTE-13-COOH on HCT116 colon cancer cells (FIG. 4C) and MCF7 breast cancer cells (FIG. 4A).

For data set [9], the system named is HCT116 colon cancer cells. Kind of data set: Apoptosis by flow cytometry. It is filed as cell-based, human. The settings on record: 20 μM, 24 hours.
A further data set has as its system DSS-induced colitis. Kind of data set: DSS-induced colitis model. The class given is in vivo, mice.
The subject of data set [10] is human breast MCF-7 cancer cells. Kind of data set: MCF-7 cell growth (MTT). The class given is cell-based. The settings on record: 5, 10, 20 μM, over 60 hours. How it is done: as §1
The target in data set [11] is T1, COX-2. Kind of data set: COX-2 inhibition with purified human enzyme (Table 3). The class given is biochemical. Details: A549 cells were pre-treated with 0.5-1 ng/mL of IL-1β- for 6 hours to induce COX-2 expression; endogenous in cells. The conditions noted are these: mean±SEM. The source says: Free radical biology & medicine 95, 190-199. Results are mean±SEM based on four or more independent experiments.

In data set [12] the test system is AOM/DSS-induced colon inflammation and tumorigenesis. Kind of data set: AOM/DSS-induced colon cancer model. The class given is in vivo, Balb/c mice. The settings on record: 0.025% diet. On the procedure:
AOM is a carcinogen and DSS administered in drinking water causes colon inflammation that promotes colon tumorigenesis. Therefore, the AOM-DSS model represents inflammation (colitis)-promoted colon cancer. In FIG. 5A, the experimental design is shown. At day 0, AOM is administered to the Balb/c mice.

The target in the next data set is T3, 5-LOX (Homo sapiens, UniProt P09917).
T3 sequence (P09917 1-674): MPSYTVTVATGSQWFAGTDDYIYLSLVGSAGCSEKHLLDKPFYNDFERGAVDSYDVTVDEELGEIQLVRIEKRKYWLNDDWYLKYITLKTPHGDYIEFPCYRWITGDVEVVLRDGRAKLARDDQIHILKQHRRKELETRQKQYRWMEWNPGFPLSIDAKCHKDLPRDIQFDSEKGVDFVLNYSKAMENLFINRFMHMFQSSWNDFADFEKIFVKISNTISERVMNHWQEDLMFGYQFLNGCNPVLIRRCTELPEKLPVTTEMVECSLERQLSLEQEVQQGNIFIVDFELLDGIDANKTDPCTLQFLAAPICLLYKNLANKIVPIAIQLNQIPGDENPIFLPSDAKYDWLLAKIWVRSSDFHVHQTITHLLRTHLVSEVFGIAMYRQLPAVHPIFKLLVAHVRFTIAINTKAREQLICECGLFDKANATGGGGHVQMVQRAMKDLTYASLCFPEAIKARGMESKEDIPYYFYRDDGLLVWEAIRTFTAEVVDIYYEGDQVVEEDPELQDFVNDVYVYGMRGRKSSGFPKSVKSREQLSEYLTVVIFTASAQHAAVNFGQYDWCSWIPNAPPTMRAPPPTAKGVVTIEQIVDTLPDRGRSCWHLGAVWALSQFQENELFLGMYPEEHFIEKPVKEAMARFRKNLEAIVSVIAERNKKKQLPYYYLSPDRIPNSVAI
Kind of data set: 5-LOX activity in HL-60 cells differentiated neutrophils. It is filed as cell-based. Details: endogenous in cells; host or cells: HL-60 cells differentiated to neutrophils.

The mark [13] stands for this setting: Table 2, read-out: IC50 COX-2 activity in intact cells.
The mark [14] stands for this setting: intact cells, COX-2 pre-induced by IL-1β, 5 μM AA, read-out: IC50 COX-2 in A549 cells.
Setting [15] is: purified enzyme, Not inhibit: 9′ at 20 μM, acetaminophen at 250 μM.
The mark [16] stands for this setting: at maximum concentration of 20 μM.

Some results are limits rather than exact numbers.

As to `COc1cc(/C=C/C(=O)CC(=O)/C=C/c2ccc(O)c(OC)c2)ccc1O` [curcumin, reference compound], the sulfation of carboxychromanols entry in data set [1] is reported as “inhibits sulfation”. The cytotoxicity at 6 µM in data set [2] (Homo sapiens, HCT-116, curcumin 6 μM, δTE-13′-COOH 10 μM or their combination, 72 h, read-out: reduction of colon cancer cell viability) amounted to 35%.

Consider `Cc1cc(O)cc2c1OC(C)(CCCC(C)CCCC(C)CCCC(C)C(=O)O)CC2` (centres unmarked) [13′, 13-(6-hydroxy-2,8-dimethylchroman-2-yl)-2,6,10-trimethyltridecanoic acid], for which the PGE2 in data set [3] was determined as 3.21 ± 0.9 ng/mL. Also, the IC50 (usually the concentration that inhibits the measured activity by half) on COX-2 [4] (setting [13]) was determined as 4 ± 2 µM; at COX-2 [4] (setting [14]), 6 ± 2 µM; against ovine COX-1 (setting [15]) it was 5 ± 2 µM; against COX-2 [5] (setting [15]) it was 4 ± 2 µM. For the same compound, the “detection in the plasma and liver” value in data set [6] is “significant amounts”. The “amount found in feces” value in data set [7] was over 100 nmol/g. For the same compound, in data set [8], the “sensitivity of normal cells (anti-proliferation, 24-h incubation)” value is “much less sensitive”.

For `C/C(=C\CC/C(C)=C/CCC1(C)CCc2cc(O)cc(C)c2O1)CC/C=C(\C)C(=O)O` (centres unmarked) [δTE-13′, (2E,6E,10E)-13-(6-hydroxy-2,8-dimethylchroman-2-yl)-2,6,10-trimethyltrideca-2,6,10-trienoic acid], the IC50 at COX-2 [4] (setting [13]) is 4 ± 1 µM; on COX-2 [11], 9.8 ± 2 µM. Besides, the “cancer cell growth (MTT)” value is “dose- and time-dependent manner” in the data set on HT29 colon cancer cells; “dose-dependently inhibits” in data set [2] (5, 10, 20 μM, over 60 hours); “dose-dependently inhibits” in data set [10]. For the same compound, the “cells in early stage apoptosis” value in data set [9] stood at 7.92%. The “cells in late stage apoptosis” value in data set [9] is recorded as 22.9%. In addition, the “reduction of colon cancer cell viability” value in data set [2] (curcumin 6 μM, δTE-13′-COOH 10 μM or their combination, 72 h) is 11-12%. Further, the colitis score entry with DSS-induced colitis (compared to the DSS-treated control) was “significantly decreased colitis score”. For the same compound, in the data set with DSS-induced colitis (in diet), the “DSS-induced diarrhea and fecal bleeding” value is on record as “significantly mitigated”. Besides, the body weight result in data set [12] is “no effect”. In addition, in [12], the food intake result is listed as “no effect”. Besides, the “decrease of total tumor multiplicity” value in data set [12] (P<0.01) stood at 34%. Further, the “decrease of large polyps” value in [12] (P<0.05) is on record as 58%. The “DSS-induced inflammation (fecal bleeding)” value in [12] (second cycle of DSS) is listed as “significantly attenuated”.

Take `Cc1cc(O)cc2c1OC(C)(CCCC(C)CCCC(C)C(=O)O)CC2` (centres unmarked) [9′]: at COX-2 [4] (setting [14]), the concentration for half-maximal inhibition (IC50) worked out at 7 ± 2 µM. The “inhibition of COX-1” value on ovine COX-1 (setting [16]) is “did not inhibit”. The “IC50 COX-1” value on ovine COX-1 (setting [15]) was “Not inhibit*”. Besides, the “inhibition of COX-2” value at COX-2 [5] (setting [16]) is reported as “did not inhibit”. Also, the “IC50 COX-2” value against COX-2 [5] (setting [15]) is on record as “Not inhibit*”. Besides, in [6], the “detection in the plasma and liver” value was “not”. For the same compound, the “estimated IC50 of 5-LOX activity” value on 5-LOX is given as “low microM”.
